Measured values taken from PMC2895771 (Journal of the American Chemical Society, 2010).

How the values were obtained:
[1] = system: PHD finger of BPTF; assay: labeling of recombinant BPTF PHD finger by probe 1 and competition by peptides; assay type: biochemical; details: probe 1 (1 μM), protein 100 ng; in words
[2] = system: GST-ING2PHD; assay type: biochemical; details: probe 1 (1 μM); GST-ING2PHD 10 μg/mL, 280 nM; Hela cell lysates 2 mg/mL; in words
[3] = target: T1, GST-fused PHD finger of ING2 (GST-ING2PHD) (Homo sapiens, UniProt Q9H160); assay: UV photocrosslinking labeling of recombinant GST-ING2PHD by probe 1; assay type: biochemical; details: UV irradiation 1 h, coupled to rhodamine azide; in words
T1 sequence (Q9H160 212-261 limits assumed): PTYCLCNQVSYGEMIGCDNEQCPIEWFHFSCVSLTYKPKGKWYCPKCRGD

[4] = system: endogenous ING2; assay: capture of endogenous ING2 from Hela cell lysates; details: probe 1 (2 μM), UV, biotin-N3, streptavidin, Western blot, in words
[5] = system: double tudor domain of JMJD2A; assay type: biochemical; details: probe 1 (1 μM), protein 100 ng; in words

Q: Which “labeling of recombinant protein” value [1] does the source give for “probe 1: H3K4me3 peptide probe; benzophenone moiety replaced the side chain of Ala 7; spacer (H3 residues 8–15) and an alkyne (ARTKQT; not fully specified; trimethyl-lysine at 4 (K(me3)); benzophenone moiety in place of the side chain of Ala 7; an alkyne group)” here?
A: The value was “robust labeling”.

Q: And the “labeling of GST-ING2PHD in cell lysates” value [2]?
A: Its value is “robustly labeled”.

Q: What about the “labeling of the recombinant protein” value [3] of the same substance?
A: Its value is “successfully labeled the recombinant protein in a dose-dependent manner”.

Q: What about the “capture of endogenous ING2” value [4] of the same substance?
A: The value was “endogenous ING2 was captured by the probe”.

Q: And the “labeling of recombinant protein” value [5]?
A: The value was “robust labeling”.
